Results published in PubChem BioAssay (NCI).
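Following 48 hours of exposure in 96-well plates, responses at five concentrations were used to interpolate endpoints linearly. The concentration for 50% growth inhibition is given as GI50. TGI denotes the concentration required for complete inhibition of growth.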

Legend:
Test in all cases: DTP human tumour cell line panel, 48 h
HT29 colon = tested on: HT29 colon
CCRF-CEM leukemia = tested on: CCRF-CEM leukemia
COLO 205 colon = tested on: COLO 205 colon
MOLT-4 leukemia = tested on: MOLT-4 leukemia
NCI-H23 lung = tested on: NCI-H23 lung
MCF7 breast = tested on: MCF7 breast
RXF 393 renal = tested on: RXF 393 renal
HS 578T breast = tested on: HS 578T breast
BT-549 breast = tested on: BT-549 breast
RPMI-8226 leukemia = tested on: RPMI-8226 leukemia
A498 renal = tested on: A498 renal
SF-539 CNS = tested on: SF-539 CNS
SK-MEL-2 melanoma = tested on: SK-MEL-2 melanoma
UO-31 renal = tested on: UO-31 renal
NCI-H226 lung = tested on: NCI-H226 lung
MDA-MB-435 = tested on: MDA-MB-435
UACC-62 melanoma = tested on: UACC-62 melanoma
SNB-19 CNS = tested on: SNB-19 CNS
PC-3 prostate = tested on: PC-3 prostate
OVCAR-5 ovarian = tested on: OVCAR-5 ovarian
SK-MEL-5 melanoma = tested on: SK-MEL-5 melanoma
MALME-3M melanoma = tested on: MALME-3M melanoma
KM12 colon = tested on: KM12 colon
NCI-H522 lung = tested on: NCI-H522 lung
SN12C renal = tested on: SN12C renal
SR leukemia = tested on: SR leukemia
UACC-257 melanoma = tested on: UACC-257 melanoma
HCT-116 colon = tested on: HCT-116 colon
MDA-MB-231 breast = tested on: MDA-MB-231 breast
ACHN renal = tested on: ACHN renal
OVCAR-3 ovarian = tested on: OVCAR-3 ovarian
T-47D breast = tested on: T-47D breast
786-0 renal = tested on: 786-0 renal
LOX IMVI melanoma = tested on: LOX IMVI melanoma
NCI-H460 lung = tested on: NCI-H460 lung
U251 CNS = tested on: U251 CNS
HOP-92 NSCLC = tested on: HOP-92 NSCLC
DU-145 prostate = tested on: DU-145 prostate
HCC-2998 colon = tested on: HCC-2998 colon
SK-OV-3 ovarian = tested on: SK-OV-3 ovarian
HL-60(TB) leukemia = tested on: HL-60(TB) leukemia
NCI/ADR-RES ovarian = tested on: NCI/ADR-RES ovarian
TK-10 renal = tested on: TK-10 renal
OVCAR-4 ovarian = tested on: OVCAR-4 ovarian
K-562 leukemia = tested on: K-562 leukemia
SW-620 colon = tested on: SW-620 colon
HOP-62 NSCLC = tested on: HOP-62 NSCLC
EKVX NSCLC = tested on: EKVX NSCLC
A549 NSCLC = tested on: A549 NSCLC
SF-295 CNS = tested on: SF-295 CNS
SNB-75 CNS = tested on: SNB-75 CNS
HCT-15 colon = tested on: HCT-15 colon
SF-268 CNS = tested on: SF-268 CNS
IGROV1 ovarian = tested on: IGROV1 ovarian
M14 melanoma = tested on: M14 melanoma
SK-MEL-28 melanoma = tested on: SK-MEL-28 melanoma
CAKI-1 renal = tested on: CAKI-1 renal
OVCAR-8 ovarian = tested on: OVCAR-8 ovarian

CN(c1ccccc1)c1c2ccccc2nc2[nH]c3ccccc3c12
GI50 (HT29 colon): 3.83 µM | TGI (HT29 colon): > 100 µM | GI50 (CCRF-CEM leukemia): 1.27 µM | TGI (CCRF-CEM leukemia): > 100 µM | GI50 (COLO 205 colon): 3.45 µM | TGI (COLO 205 colon): 16.1 µM | GI50 (MOLT-4 leukemia): 0.841 µM | TGI (MOLT-4 leukemia): > 29.6 µM | GI50 (NCI-H23 lung): 6.4 µM | TGI (NCI-H23 lung): 28.7 µM | GI50 (MCF7 breast): 0.769 µM | GI50 (RXF 393 renal): 2.11 µM | TGI (RXF 393 renal): 38.7 µM | GI50 (HS 578T breast): 3.06 µM | TGI (HS 578T breast): 12.9 µM | GI50 (BT-549 breast): 4.36 µM | TGI (BT-549 breast): 13.1 µM | GI50 (RPMI-8226 leukemia): 1.49 µM | TGI (RPMI-8226 leukemia): 3.92 µM | GI50 (A498 renal): 2.04 µM | TGI (A498 renal): 5.32 µM | GI50 (SF-539 CNS): 1.91 µM | TGI (SF-539 CNS): 4.59 µM | GI50 (SK-MEL-2 melanoma): 7.71 µM | GI50 (UO-31 renal): 1.22 µM | TGI (UO-31 renal): 3.66 µM | GI50 (NCI-H226 lung): 1.91 µM | TGI (NCI-H226 lung): 4.44 µM | GI50 (MDA-MB-435): 3.26 µM | TGI (MDA-MB-435): 9.25 µM | GI50 (UACC-62 melanoma): 1.5 µM | TGI (UACC-62 melanoma): 4.21 µM | GI50 (SNB-19 CNS): 3.77 µM | TGI (SNB-19 CNS): 15.5 µM | GI50 (PC-3 prostate): 2.78 µM | TGI (PC-3 prostate): 14.7 µM | GI50 (OVCAR-5 ovarian): 12.6 µM | TGI (OVCAR-5 ovarian): 39.5 µM | GI50 (SK-MEL-5 melanoma): 1.62 µM | TGI (SK-MEL-5 melanoma): 3.56 µM | GI50 (MALME-3M melanoma): 2.24 µM | TGI (MALME-3M melanoma): 5.72 µM | GI50 (KM12 colon): 2.24 µM | TGI (KM12 colon): 7.4 µM | GI50 (NCI-H522 lung): 3.56 µM | TGI (NCI-H522 lung): 14.9 µM | GI50 (SN12C renal): 1.68 µM | TGI (SN12C renal): 5.06 µM | GI50 (SR leukemia): 0.336 µM | TGI (SR leukemia): > 100 µM | GI50 (UACC-257 melanoma): 6.54 µM | TGI (UACC-257 melanoma): 21.4 µM | GI50 (HCT-116 colon): 2.89 µM | TGI (HCT-116 colon): 8.72 µM | GI50 (MDA-MB-231 breast): 1.93 µM | TGI (MDA-MB-231 breast): 4.63 µM | GI50 (ACHN renal): 1.43 µM | TGI (ACHN renal): 3.2 µM | GI50 (OVCAR-3 ovarian): 2 µM | TGI (OVCAR-3 ovarian): 6.01 µM | GI50 (T-47D breast): 3.84 µM | TGI (T-47D breast): 32.6 µM | GI50 (786-0 renal): 1.76 µM | TGI (786-0 renal): 4.33 µM | GI50 (LOX IMVI melanoma): 1.43 µM | TGI (LOX IMVI melanoma): 4 µM | GI50 (NCI-H460 lung): 1.16 µM | TGI (NCI-H460 lung): 10.3 µM | GI50 (U251 CNS): 1.68 µM | TGI (U251 CNS): > 25.5 µM | GI50 (HOP-92 NSCLC): 1.79 µM | TGI (HOP-92 NSCLC): 6.46 µM | GI50 (DU-145 prostate): 1.44 µM | TGI (DU-145 prostate): 8.76 µM | GI50 (HCC-2998 colon): 3.05 µM | TGI (HCC-2998 colon): 12.1 µM | GI50 (SK-OV-3 ovarian): 3.75 µM | TGI (SK-OV-3 ovarian): 14.1 µM | GI50 (HL-60(TB) leukemia): 0.985 µM | TGI (HL-60(TB) leukemia): 6.25 µM | GI50 (NCI/ADR-RES ovarian): 7.79 µM | TGI (NCI/ADR-RES ovarian): > 47.8 µM | GI50 (TK-10 renal): 1.26 µM | TGI (TK-10 renal): 3.5 µM | GI50 (OVCAR-4 ovarian): 4.42 µM | TGI (OVCAR-4 ovarian): > 48.7 µM | GI50 (K-562 leukemia): 2.41 µM | TGI (K-562 leukemia): > 56.8 µM | GI50 (SW-620 colon): 2.04 µM | TGI (SW-620 colon): 8.82 µM | GI50 (HOP-62 NSCLC): 1.96 µM | TGI (HOP-62 NSCLC): 5.97 µM | GI50 (EKVX NSCLC): 5.04 µM | TGI (EKVX NSCLC): 21 µM | GI50 (A549 NSCLC): 0.943 µM | TGI (A549 NSCLC): 3.27 µM | GI50 (SF-295 CNS): 2.44 µM | TGI (SF-295 CNS): 5.76 µM | GI50 (SNB-75 CNS): 3.04 µM | TGI (SNB-75 CNS): 15.1 µM | GI50 (HCT-15 colon): 2.73 µM | TGI (HCT-15 colon): > 31.9 µM | GI50 (SF-268 CNS): 3.41 µM | TGI (SF-268 CNS): 15.2 µM | GI50 (IGROV1 ovarian): 1.79 µM | GI50 (M14 melanoma): 2.21 µM | TGI (M14 melanoma): 4.43 µM | GI50 (SK-MEL-28 melanoma): 2.08 µM | TGI (SK-MEL-28 melanoma): 7.42 µM | GI50 (CAKI-1 renal): 1.92 µM | TGI (CAKI-1 renal): 5.92 µM | GI50 (OVCAR-8 ovarian): 2.46 µM | TGI (OVCAR-8 ovarian): > 29.3 µM
